Source: US6261814A, “Carboxylic acid reductase, and methods of using same” (University of Iowa Research Foundation, priority 1998, dated 2001)

Tests used:
[1] = biological target: T1, carboxylic acid reductase (aryl aldehyde oxidoreductase) (Nocardia iowensis, UniProt Q6RKB1); assay: Substrate specificity of crude carboxylic acid reductase (100,000×g supernatant); format: biochemical, Nocardia sp. NRRL 5646; design: Crude enzyme preparations consisting of 100,000×g supernatants were used in this study; endogenous in cells; host or cells: Nocardia sp; NRRL 5646, crude 100,000×g supernatant; conditions: for Relative Activity: 5 mM substrate, 0.15 mM NADPH, 1 mM ATP, 50 mM Tris-HCl pH 7.5, percentage of the initial rate of benzoate reduction; for quality as substrate of the enzyme (in words): substrates of Table 2
T1 sequence (Q6RKB1 whole entry): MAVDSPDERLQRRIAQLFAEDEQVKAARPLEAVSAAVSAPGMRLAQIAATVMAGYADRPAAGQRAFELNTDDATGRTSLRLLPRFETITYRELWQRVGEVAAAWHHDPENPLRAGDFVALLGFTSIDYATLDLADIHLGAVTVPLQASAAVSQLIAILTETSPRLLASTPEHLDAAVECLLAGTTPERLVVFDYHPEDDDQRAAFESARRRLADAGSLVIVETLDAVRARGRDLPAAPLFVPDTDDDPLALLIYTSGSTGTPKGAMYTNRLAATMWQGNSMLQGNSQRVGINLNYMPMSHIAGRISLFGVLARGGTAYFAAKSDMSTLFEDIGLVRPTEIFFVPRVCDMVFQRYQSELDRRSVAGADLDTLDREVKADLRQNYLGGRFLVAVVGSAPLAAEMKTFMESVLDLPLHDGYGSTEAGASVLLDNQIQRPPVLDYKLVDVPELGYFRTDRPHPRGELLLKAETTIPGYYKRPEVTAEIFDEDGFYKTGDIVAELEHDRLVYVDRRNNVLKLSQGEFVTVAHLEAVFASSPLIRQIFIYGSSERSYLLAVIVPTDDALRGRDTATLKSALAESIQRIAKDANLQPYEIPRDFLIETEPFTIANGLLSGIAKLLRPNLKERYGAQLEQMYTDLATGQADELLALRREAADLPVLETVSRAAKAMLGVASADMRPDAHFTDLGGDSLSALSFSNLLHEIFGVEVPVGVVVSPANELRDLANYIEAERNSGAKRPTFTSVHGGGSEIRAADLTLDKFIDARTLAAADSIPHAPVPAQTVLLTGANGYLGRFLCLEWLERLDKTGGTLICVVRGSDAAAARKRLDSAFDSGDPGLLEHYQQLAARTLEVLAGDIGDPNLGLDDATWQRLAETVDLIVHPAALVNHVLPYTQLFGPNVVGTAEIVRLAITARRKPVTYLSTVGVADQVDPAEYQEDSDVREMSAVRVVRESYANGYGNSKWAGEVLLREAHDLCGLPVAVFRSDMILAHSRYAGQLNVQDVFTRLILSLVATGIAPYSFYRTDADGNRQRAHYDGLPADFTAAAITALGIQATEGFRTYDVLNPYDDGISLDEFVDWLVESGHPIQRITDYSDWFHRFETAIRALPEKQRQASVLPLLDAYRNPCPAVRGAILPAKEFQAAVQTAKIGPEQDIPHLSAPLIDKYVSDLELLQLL
Description: (§1) Enzyme assay. The standard aryl-aldehyde oxidoreductase assay solution contained 0.15 mM […], 1 mM ATP, and 5 mM sodium benzoate, 10 mM MgCl2 and 0.01 to 0.3 units of enzyme in 50 mM Tris-HCl buffer in a final volume of 0.7 ml. The reference cuvette contained all components except for benzoate. Enzyme reactions were initiated by adding enzyme, and they were monitored by recording the absorption decrease at 340 nm at 25° C. with a Shimadzu 160 spectrophotometer.
Crude enzyme preparations consisting of 100,000×g supernatants were used in this study. […] The relative rate of reduction for each carboxylic acid derivative is expressed as the percentage of the initial rate of benzoate reduction.
The range of oxidoreductase activities of crude, 100,000×g Nocardia extract with a variety of substrates was investigated. Various substituted 2-, 3- and 4-substituted benzoates were examined, including a range of ring-activating and ring-deactivating functional groups. Benzoates substituted with halogens, methyl, methoxy, hydroxy, acetyl, nitro, benzoyl, phenyl, and phenoxyl groups as well as aryl-ring systems containing two (naphthalene) and three (fluorene) rings, and heterocyclic aromatic acids including furoic, nicotinic and indole carboxylic acids were considered. In addition, one cinnamic acid derivative, phenyl-acetate, phenyl-malonate, phenyl-succinate and 2-phenylpropionic acid were studied.

[2] = biological target: T1, carboxylic acid reductase (aryl aldehyde oxidoreductase); assay: Kinetic properties of the purified carboxylic acid reductase (standard enzyme assay); conditions: for apparent Km relative to Km reported for the enzyme from Nocardia asteroides: higher than values reported by Kato et al.; for turn-over number: calculated assuming pure enzyme and one active site per molecule; for Vmax: mean of three determinations; for type of inhibition: versus benzoic acid
Description: as §1
Kinetic constants were obtained by fitting experimental data with the EZ-FIT program developed by Perrella (Perrella, Anal. Biochem. 174:437-447 (1987)).
S(+)-α-Methyl-4-[2-methylpropyl]-benzeneacetic acid (ibuprofen) was from Aldrich Chemical Co. R(-) isomer of ibuprofen was a gift from Dr. Ching-Shih Chen, University of Rhode Island (Chen et al., Biochim. Biophys. Acta 1033:1-6 (1990)). […] Substrate enantiopurities were checked by specific rotation determination for each isomer (Chen and Rosazza, Appl. Environ. Microbiol. 60(4):1292-1296 (1994)).

[3] = biological target: T2, carboxylic acid reductase (Nocardia iowensis, UniProt Q6RKB1); assay: Enzymatic reduction of vanillic acid to vanillin by purified carboxylic acid reductase; format: biochemical, Nocardia sp. NRRL 5646; conditions: UV spectrophotometric assay at 340 nm; 30° C., 24 hours
T2 construct: isolated and substantially purified from Nocardia sp. strain NRRL 5646; endogenous in cells; host or cells: Nocardia sp; NRRL 5646, benzoate-induced culture; enzyme purified by Mono-Q, Reactive Green 19 agarose and hydroxyapatite chromatography
T2 sequence (Q6RKB1 whole entry): as above
Description: The reaction mixture was incubated at 30° C. with gentle shaking for 24 hours, after which the entire reaction mixture was loaded onto a solid phase extraction cartridge (Chem Elut 1200, 200 ml aqueous solution capacity). After 5 min. of equilibration, the cartridge was washed with 2×100 ml of hexane, then washed again with 2×100 ml of dichloromethane (concentrated to less than 2 ml).
The extract was then transferred to a vial and the solvent was removed with a stream of nitrogen to give about 8 mg of the purified vanillin end product.
Mass spectrometry, ^1 H, and ^13 C NMR data confirmed that this compound was vanillin. The yield was determined to be 96% with UV spectrophotometric assay at 340 nm.

Row | Compound | Relative Activity [1] [percentage] | also measured
1 | O=C(O)c1cccc2ccccc12 [1-naphthoic acid] | 77 | –
2 | CC(=O)c1ccccc1C(=O)O [2-acetyl-benzoic acid] | 4 | –
3 | CC(=O)Nc1ccccc1C(=O)O [2-acetylamino-benzoic acid] | 0 | –
4 | COc1ccccc1C(=O)O [2-anisic acid] | 3 | –
5 | O=C(O)c1ccccc1C(=O)c1ccccc1 [2-benzoyl-benzoic acid] | 0 | –
6 | O=C(O)c1ccccc1Br [2-bromo-benzoic acid] | 5 | –
7 | O=C(O)c1ccccc1Cl [2-chloro-benzoic acid] | 3 | –
8 | O=C(O)c1ccccc1F [2-fluoro-benzoic acid] | 57 | –
9 | O=C(O)c1ccco1 [2-furoic acid] | 18 | –
10 | O=C(O)c1ccccc1O [2-hydroxyl-benzoic acid] | 0 | –
11 | O=C(O)c1ccc2ccccc2c1 [2-naphthoic acid] | 95 | quality as substrate of the enzyme (in words) [1]: best substrates
12 | O=C(O)c1ccccc1[N+](=O)[O-] [2-nitro-benzoic acid] | 0 | –
13 | CC(C(=O)O)c1ccccc1 (stereo not shown) [2-phenyl propionic acid] | 16 | quality as substrate of the enzyme (in words) [1]: slower rates than benzoate
14 | O=C(O)c1ccccc1-c1ccccc1 [2-phenyl-benzoic acid] | 16 | –
15 | Cc1ccccc1C(=O)O [2-toluic acid] | 6 | –
16 | COc1cccc(C(=O)O)c1 [3-anisic acid] | 87 | quality as substrate of the enzyme (in words) [1]: best substrates
17 | O=C(O)c1cccc(C(=O)c2ccccc2)c1 [3-benzoyl-benzoic acid] | 53 | –
18 | O=C(O)c1cccc(Br)c1 [3-bromo-benzoic acid] | 105 | quality as substrate of the enzyme (in words) [1]: best substrates
19 | O=C(O)c1cccc(Cl)c1 [3-chloro-benzoic acid] | 124 | quality as substrate of the enzyme (in words) [1]: best substrates
20 | O=C(O)c1cccc(F)c1 [3-fluoro-benzoic acid] | 78 | –
21 | O=C(O)c1ccoc1 [3-furoic acid] | 22 | –
22 | O=C(O)c1cccc(O)c1 [3-hydroxyl-benzoic acid] | 77 | –
23 | COc1cccc(C=CC(=O)O)c1 [3-methoxy-cinnamic acid] | 8 | –
24 | O=C(O)c1cccc([N+](=O)[O-])c1 [3-nitro-benzoic acid] | 0 | –
25 | Cc1cccc(C(=O)O)c1 [3-toluic acid] | 4 | –
26 | CC(=O)c1ccc(C(=O)O)cc1 [4-acetyl-benzoic acid] | 20 | –

Row | Compound | Relative Activity [1] [percentage] | also measured
27 | CC(=O)Nc1ccc(C(=O)O)cc1 [4-acetylamino-benzoic acid] | 22 | –
28 | COc1ccc(C(=O)O)cc1 [4-anisic acid] | 36 | –
29 | O=C(O)c1ccc(C(=O)c2ccccc2)cc1 [4-benzoyl-benzoic acid] | 6 | –
30 | O=C(O)c1ccc(Br)cc1 [4-bromo-benzoic acid] | 72 | –
31 | O=C(O)c1ccc(F)cc1 [4-fluoro-benzoic acid] | 94 | quality as substrate of the enzyme (in words) [1]: best substrates
32 | O=C(O)c1ccc(O)cc1 [4-hydroxyl-benzoic acid] | 6 | –
33 | O=C(O)c1ccc([N+](=O)[O-])cc1 [4-nitro-benzoic acid] | 0 | –
34 | O=C(O)c1ccc(Oc2ccccc2)cc1 [4-phenoxy-benzoic acid] | 11 | –
35 | O=C(O)c1ccc(-c2ccccc2)cc1 [4-phenyl-benzoic acid] | 21 | –
36 | Cc1ccc(C(=O)O)cc1 [4-toluic acid] | 82 | quality as substrate of the enzyme (in words) [1]: best substrates
37 | Nc1ncnc2c1ncn2[C@@H]1O[C@H](COP(=O)(O)OP(=O)(O)OP(=O)(O)O)[C@@H](O)[C@H]1O [ATP] | – | apparent Km relative to Km reported for the enzyme from Nocardia asteroides [2]: more than 1000 fold
38 | NC(=O)C1=CN([C@@H]2O[C@H](COP(=O)(O)OP(=O)(O)OC[C@H]3O[C@@H](n4cnc5c(N)ncnc54)[C@H](OP(=O)(O)O)[C@@H]3O)[C@@H](O)[C@H]2O)C=CC1 [NADPH] | – | apparent Km relative to Km reported for the enzyme from Nocardia asteroides [2]: more than 1000 fold
39 | CC(C)Cc1ccc([C@@H](C)C(=O)O)cc1 [R(-)-ibuprofen] | – | turn-over number [2]: 21 min⁻¹; Vmax ([2]; purified enzyme, listed as R(-) isomer): 1.33+0.02 μmol/min/mg of protein; Vmax ([2]; purified enzyme, listed as R-(-)): 0.15 μmol/min/mg of protein
40 | CC(C)Cc1ccc([C@H](C)C(=O)O)cc1 [S(+)-ibuprofen, S(+)-α-Methyl-4-[2-methylpropyl]-benzeneacetic acid] | – | turn-over number [2]: 186 min⁻¹; Vmax ([2]; purified enzyme, listed as S(+) isomer): 0.148±0.003 μmol/min/mg of protein; Vmax ([2]; purified enzyme, listed as S-(+)): 1.33 μmol/min/mg of protein
41 | Nc1ccccc1C(=O)O [anthranilic acid, 2-amino benzoic acid] | – | Ki [2]: 261 ± 30 µM; NADPH oxidation with the compound in place of benzoic acid ([2]; 5 mM in the enzyme assay solution): no NADPH oxidation was observed; type of inhibition ([2]; listed as 2-amino benzoic acid): typical competitive inhibitor; type of inhibition ([2]; listed as Anthranilic acid): competitive inhibitor
42 | O=Cc1ccccc1 [benzaldehyde] | – | reduction of benzaldehyde to benzyl alcohol ([2]; purified enzyme): did not reduce
43 | O=C(O)c1cccc2c1Cc1ccccc1-2 [fluorene-1-carboxylic acid] | 17 | –
44 | O=C(O)c1cc2ccccc2[nH]1 [indole-2-carboxylic acid] | 0 | –
45 | O=C(O)c1c[nH]c2ccccc12 [indole-3-carboxylic acid] | 2 | –
46 | O=C(O)c1cccc2[nH]ccc12 [indole-4-carboxylic acid] | 0 | –
47 | O=C(O)c1ccc2[nH]ccc2c1 [indole-5-carboxylic acid] | 10 | –
48 | O=C(O)c1cccnc1 [nicotinic acid] | 5 | quality as substrate of the enzyme (in words) [1]: slower rates than benzoate
49 | O=C(O)Cc1ccccc1 [phenyl acetic acid] | 43 | quality as substrate of the enzyme (in words) [1]: slower rates than benzoate
50 | O=C(O)C(C(=O)O)c1ccccc1 [phenyl malonic acid] | 3 | quality as substrate of the enzyme (in words) [1]: slower rates than benzoate
51 | O=C(O)CC(C(=O)O)c1ccccc1 (stereo not shown) [phenyl succinic acid] | 11 | quality as substrate of the enzyme (in words) [1]: slower rates than benzoate
52 | COc1cc(C=O)ccc1O [vanillin, 4-hydroxy-3-methoxy-benzaldehyde] | – | yield of vanillin [3]: 96%
